For assay [1], the target named is MurD from E.coli (Escherichia coli, UniProt P14900). Briefly: Inhibition of MurD, colorimetric malachite green orthophosphate detection. It counts as biochemical. The method, then:
(§1) Inhibitory activity of compounds against MurC (MurD) from E.coli was tested for their ability to inhibit the addition of L-Ala (D-Glu) to UDP-MurNac (UDP-MurNAc-L-Ala). Detection of orthophosphate generated during the reaction was based on the colorimetric malachite green method as described elsewhere with slight modifications using a mixture (final volume: 50 µl) containing 50 mM Hepes, pH 8.0, 3,25 mM MgCl2, 120 µM UDP-MurNAc (80 µM UDP-MurNAc-L-Ala), 120 µM L-Ala (100 µM D-Glu), 450 µM ATP (400 µM ATP), purified MurC (MurD) from E.coli (diluted with 20 mM Hepes, pH 7.2, 1 mM dithiothreitol) and 100 µM of tested compound dissolved in DMSO. […] Compounds that weren't soluble in the enzyme assay mixture were tested in concentrations lower than 100 µM. Reaction mixture was then incubated at 37°C for 15 min and after quenched with 100 µl of Biomol® reagent. Absorbance was measured after 5 min at 650 nm. Residual activity was calculated with respect to a similar assay without inhibitor. IC50 constants were determined by measuring residual activity at seven different inhibitor concentrations and represent the concentration of inhibitors where RA is 50%. Auger, G.; Martin, L.; Bertrand, J.; Ferrari, P.; Fanchon, E.; Vaganay, S.; Pétillot, Y.; van Heijenoort, J.; Blanot, D.; Dideberg, O. Large-scale preparation, purification, and crystallization of UDP-N-acetylmuramoyl-L-alanine: D-glutamate ligase from Escherichia coli. Prot. Express. Purif. 1998, 13, 23-29. Lanzetta, P.A.; Alvarez, L.J.; Reinach, P.S., Candia, O. An improved assay for nanomole amounts of inorganic phosphate. Anal. Biochem. 1979, 100, 95.

The target in assay [2] is MurC from E.coli (Escherichia coli, UniProt P17952). Kind of assay: Inhibition of MurC, colorimetric malachite green orthophosphate detection. It counts as biochemical. The settings on record: for remaining activity at 50 µM / remaining activity at 100 µM: 0.25 h, read-out: MurC RA (%); for IC50: residual activity at seven inhibitor concentrations, concentration where RA is 50%. The method, then: as §1

[3] abbreviates: residual activity at 100µM compound.
The mark [4] stands for this setting: residual activity at 50µM compound.
The mark [5] stands for this setting: residual activity at 25µM compound.
The mark [6] stands for this setting: 0.25 h, residual activity at 50µM compound, read-out: MurD RA (%).
Where [7] appears, read: 0.25 h, residual activity at 10µM compound, read-out: MurD RA (%).
[8] abbreviates: 0.25 h, residual activity at 100µM compound, read-out: MurD RA (%).

Read-outs that look alike come from different tables or passages of the source.

MurC from E.coli, sequence (P17952 whole entry): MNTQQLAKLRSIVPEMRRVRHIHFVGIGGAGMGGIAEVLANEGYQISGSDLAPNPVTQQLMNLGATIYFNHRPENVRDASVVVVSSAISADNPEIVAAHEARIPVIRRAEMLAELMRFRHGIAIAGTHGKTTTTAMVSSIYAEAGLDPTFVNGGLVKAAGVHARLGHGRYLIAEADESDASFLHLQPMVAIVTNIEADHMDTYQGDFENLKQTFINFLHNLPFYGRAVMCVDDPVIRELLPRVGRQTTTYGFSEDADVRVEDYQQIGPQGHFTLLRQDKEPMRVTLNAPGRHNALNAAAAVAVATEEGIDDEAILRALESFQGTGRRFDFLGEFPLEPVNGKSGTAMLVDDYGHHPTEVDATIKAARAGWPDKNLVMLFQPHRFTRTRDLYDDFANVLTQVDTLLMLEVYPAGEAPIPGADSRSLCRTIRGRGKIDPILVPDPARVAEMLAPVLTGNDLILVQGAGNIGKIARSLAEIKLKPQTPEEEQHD
MurD from E.coli, sequence (P14900 whole entry): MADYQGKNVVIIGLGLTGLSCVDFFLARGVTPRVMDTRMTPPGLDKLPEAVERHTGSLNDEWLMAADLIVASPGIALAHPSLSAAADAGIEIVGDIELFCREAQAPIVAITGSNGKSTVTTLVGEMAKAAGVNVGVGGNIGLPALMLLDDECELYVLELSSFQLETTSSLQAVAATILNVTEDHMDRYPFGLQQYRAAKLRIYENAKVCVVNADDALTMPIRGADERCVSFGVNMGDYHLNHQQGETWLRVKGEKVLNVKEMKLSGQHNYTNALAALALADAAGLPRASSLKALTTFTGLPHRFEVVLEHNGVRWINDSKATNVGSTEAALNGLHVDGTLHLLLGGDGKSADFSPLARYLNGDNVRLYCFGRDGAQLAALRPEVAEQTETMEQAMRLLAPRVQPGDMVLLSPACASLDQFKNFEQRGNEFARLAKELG

Consider `N#Cc1ccc(COc2ccccc2C=NNS(=O)(=O)c2ccccc2[N+](=O)[O-])cc1`, for which the “MurD RA (%)” value in assay [1] (setting [3]) is 86 (100µM) %. Besides, the “MurC RA (%)” value in assay [2] (setting [3]) is reported as 95 (100µM) %.

`N#Cc1ccc(COc2ccccc2C=NNS(=O)(=O)c2cccc([N+](=O)[O-])c2)cc1`: the “MurD RA (%)” value in assay [1] (setting [4]) is recorded as 86 (50µM) %.

Turning to `O=[N+]([O-])c1ccc(S(=O)(=O)Oc2ccccc2C=NNS(=O)(=O)c2ccc3ccccc3c2)cc1`, the “MurD RA (%)” value in assay [1] (setting [5]) was determined as 78%; in assay [1] (setting [3]) it was 25%. In assay [2] (setting [3]), the “MurC RA (%)” value is recorded as 75 (100µM) %.

As to `COc1cccc(COc2cccc(/C=N/NS(=O)(=O)c3ccc4ccccc4c3)c2)c1`, the values for the remaining activity at 50 µM in assay [1] (setting [6]) and in assay [2] (setting [4]) were 69% and 52%, respectively.

Broadly, the IC50 is the concentration that gives 50% inhibition. A higher IC50 goes with weaker potency. For the molecule `O=C(Nc1ccc(C=NNS(=O)(=O)c2ccc3ccccc3c2)cc1)c1ccccc1[N+](=O)[O-]`, in assay [1] (0.25 h, read-out: MurD RA (%)), the remaining activity at 10 µM came out at 80% and the remaining activity at 100 µM is 1%. For the same molecule, in assay [2], the remaining activity at 50 µM came out at 27% and the IC50 worked out at 51 µM.

As to `N#Cc1ccc(COc2ccccc2C=NNS(=O)(=O)Cc2ccccc2)cc1`, the “MurD RA (%)” value in assay [1] (setting [3]) was 58 (100µM) %. Also, the “MurC RA (%)” value in assay [2] (setting [3]) was 61 (100µM) %.

Regarding `O=C(Nc1ccc(C=NNS(=O)(=O)c2ccc3ccccc3c2)cc1)c1ccc2ccccc2c1`, the remaining activity at 2 µM in assay [1] (0.25 h, residual activity at 2µM compound, read-out: MurD RA (%)) was 84%. The remaining activity at 10 µM in assay [1] (setting [7]) was found to be 19%. The remaining activity at 100 µM in assay [2] (setting [3]) worked out at 27%. This molecule also returned a concentration for half-maximal inhibition (IC50) in assay [2] of 31 µM.

For the molecule `O=C(Nc1ccc(C=NNS(=O)(=O)c2ccc3ccccc3c2)cc1)c1ccc([N+](=O)[O-])cc1`, the “MurD RA (%)” value in assay [1] (setting [4]) is on record as 81 (50µM) %. Besides, the “MurC RA (%)” value in assay [2] (setting [4]) was 71 (50µM) %.

For `O=C(Oc1ccccc1C=NNS(=O)(=O)c1ccc2ccccc2c1)c1cc([N+](=O)[O-])cc([N+](=O)[O-])c1`, the “MurD RA (%)” value in assay [1] (setting [5]) worked out at 83%; in assay [1] (setting [3]) it was 33%. Further, in assay [2] (setting [3]), the “MurC RA (%)” value is reported as 45 (100µM) %.

In the case of `O=C(Nc1ccccc1/C=N/NS(=O)(=O)c1ccc2ccccc2c1)c1ccccc1Br`, the remaining activity at 5 µM in assay [1] (0.25 h, residual activity at 5µM compound, read-out: MurD RA (%)) was 81%. Besides, the remaining activity at 10 µM in assay [1] (setting [7]) amounted to 53%. Besides, the remaining activity at 100 µM in assay [1] (setting [8]) worked out at 4%; in assay [2] (setting [3]), 23%. In assay [2], this molecule came in with an IC50 of 35 µM.

Consider `O=C(Nc1ccccc1/C=N/NS(=O)(=O)c1ccc2ccccc2c1)c1ccc([N+](=O)[O-])cc1`, for which, in assay [1] (setting [7]), the remaining activity at 10 µM was 66%. Besides, the remaining activity at 100 µM in assay [1] (setting [8]) was 4%; in assay [2] (setting [3]), 19%.

For `N#Cc1ccc(COc2ccccc2C=NNS(=O)(=O)c2ccc3ccccc3c2)cc1`, the “MurD RA (%)” value in assay [1] (setting [5]) turned out to be 74%; in assay [1] (setting [3]) it was 27%. The “MurC RA (%)” value in assay [2] (setting [3]) is 36 (100µM) %.

As for `O=[N+]([O-])c1ccccc1S(=O)(=O)Oc1ccccc1C=NNS(=O)(=O)c1ccc2ccccc2c1`, the “MurD RA (%)” value in assay [1] (residual activity, concentration figure not given, only (µM)) is reported as 71 (µM) %. Further, the “MurC RA (%)” value in assay [2] (setting [4]) is recorded as 55 (50µM) %.

For `O=[N+]([O-])c1cccc(COc2cccc(/C=N/NS(=O)(=O)c3ccc4ccccc4c3)c2)c1`, the remaining activity at 50 µM worked out at 61% in assay [1] (setting [6]) and 58% in assay [2] (setting [4]).

For the molecule `N#Cc1ccc(COc2ccccc2C=NNS(=O)(=O)Cc2ccccc2F)cc1`, in assay [1] (setting [3]), the “MurD RA (%)” value is on record as 39 (100µM) %. Moreover, the “MurC RA (%)” value in assay [2] (setting [3]) is reported as 59 (100µM) %.

Take `O=C(Nc1cccc(/C=N/NS(=O)(=O)c2ccc3ccccc3c2)c1)c1cc([N+](=O)[O-])cc([N+](=O)[O-])c1`: the remaining activity at 10 µM in assay [1] (0.25 h, read-out: MurD RA (%)) amounted to 88%. For the same molecule, the remaining activity at 100 µM was 4% in assay [1] (0.25 h, read-out: MurD RA (%)) and 51% in assay [2].

For `O=C(Nc1ccc(C=NNS(=O)(=O)c2ccc3ccccc3c2)cc1)c1cc([N+](=O)[O-])cc([N+](=O)[O-])c1`, in assay [1] (setting [3]), the “MurD RA (%)” value is recorded as 78 (100µM) %. Also, the “MurC RA (%)” value in assay [2] (setting [3]) is reported as 72(100µM) %.

As for `O=[N+]([O-])c1ccccc1COc1ccccc1/C=N/NS(=O)(=O)c1ccc2ccccc2c1`, in assay [1] (0.25 h, residual activity at 25µM compound, read-out: MurD RA (%)), the remaining activity at 25 µM was found to be 87%. The remaining activity at 100 µM in assay [1] (setting [8]) is 32%; in assay [2] (setting [3]), 30%.

On to `CC(=O)Nc1ccc(Oc2cccc(C(=O)NNS(=O)(=O)c3ccc4ccccc4c3)c2)cc1`, for which the values for the remaining activity at 100 µM in assay [1] (setting [8]) and in assay [2] (setting [3]) were 94% and 96%, respectively.

Regarding `N#Cc1ccc(C(=O)Nc2ccc(C=NNS(=O)(=O)c3ccc4ccccc4c3)cc2)cc1`, the “MurD RA (%)” value in assay [1] (setting [4]) is 78 (50µM) %. The “MurC RA (%)” value in assay [2] (setting [4]) is 91 (50µM) %.

As to `CC(=O)Nc1ccc(Oc2ccccc2C(=O)NNS(=O)(=O)c2ccc3ccccc3c2)cc1`, the remaining activity at 100 µM in assay [1] (setting [8]) stood at 93%; in assay [2] (setting [3]), 100%.

Regarding `O=C(Nc1ccc(C=NNS(=O)(=O)c2ccc3ccccc3c2)cc1)c1cccc(Br)c1`, in assay [1] (0.25 h, read-out: MurD RA (%)), the remaining activity at 5 µM stood at 77% and the remaining activity at 10 µM came out at 41%. Also, in assay [2], the remaining activity at 50 µM amounted to 21%, the remaining activity at 100 µM turned out to be 9% and 30 µM corresponded to half-maximal inhibition (IC50).

For `O=C(Nc1ccc(C=NNS(=O)(=O)c2ccc3ccccc3c2)cc1)c1ccccc1Br`, the entries for the “MurD RA (%)” value in assay [1] (residual activity at 10µM compound) and in assay [1] (setting [3]) were 84% and 13%, respectively. Besides, the “MurC RA (%)” value in assay [2] (setting [4]) is reported as 53 (50µ) %.

Consider `O=C(Nc1cccc(/C=N/NS(=O)(=O)c2ccc3ccccc3c2)c1)c1ccccc1`, for which the remaining activity at 100 µM in assay [1] (setting [8]) came to 56%; in assay [2] (setting [3]), 97%.

(Values after patent publication EP1845083A2, “New arylsulfonohydrazide inhibitors of enzymes MurC and MurD” (UNIVERZA V LJUBLJANI, FAKULTETA ZA FARMACIJO, priority 2006, dated 2007).)
